Test results: patent publication EP0457910A1, “NOVEL GLUCOSAMINE DERIVATIVE AND LIPOSOME CONTAINING THE SAME AS MEMBRANE COMPONENT” (Japan Tobacco Inc., priority 1989, dated 1991)

Test system: 5-week-old ICR male mouse
Assay: Acute toxicity No. 1: lethal toxicity test of the compounds, intraperitoneal
Assay type: in vivo
Conditions: for dead individuals during the observation period / general condition after the administration / weight: i.p., mice
Text: Novel glucosamine derivative [I] according to the present invention was used to perform a lethal toxicity test with respect to mice. The following compounds were used as to-be-tested substances. • ① 6-O-palmitoyl-D-glucosamine methylglycoside • ② 6,6'-di-O-palmitoyl-D-glucosamino-(l→4)-β-D-glucosamine methylglycoside • ③ Stearylamine (Comparative Example)
Each of the above compounds was suspended in a 0.5%-CMC·Na solution to prepare a to-be-tested solution. 1.0 mℓ of each to-be-tested solution was administered intraperitoneally to a 5-week-old ICR male mouse, and a mouse mortality state was observed. Note that 1.0 mℓ of a 0.5%-CMC·Na solution was similarly administered to a solvent control group.

Row | Structure (SMILES) | Total Number of dead individuals (450 ng/kg i.p.) | Number of dead individuals (450 ng/kg i.p., 1st day) | Number of dead individuals (450 ng/kg i.p., 2nd day) | Number of dead individuals (450 ng/kg i.p., 3rd day) | Number of dead individuals (450 ng/kg i.p., Day of test) | Total Number of dead individuals (900 ng/kg i.p.) | Number of dead individuals (900 ng/kg i.p., 1st day) | Number of dead individuals (900 ng/kg i.p., 2nd day) | Number of dead individuals (900 ng/kg i.p., 3rd day) | Number of dead individuals (900 ng/kg i.p., Day of test) | dead individuals during the observation period | general condition after the administration | weight | further results
1 | CCCCCCCCCCCCCCCC(=O)OC[C@H]1OC(OC)[C@H](N)[C@@H](O)[C@@H]1O (stereo partly drawn) [compound ①, 6-O-palmitoyl-D-glucosamine methylglycoside] | 0/2 | 0/2 | 0/2 | 0/2 | 0/2 | 0/2 | 0/2 | 0/2 | 0/2 | 0/2 | no dead individual was found | no significant change was found | an increase in weight was found as in the control | –
2 | CCCCCCCCCCCCCCCC(=O)OC[C@H]1O[C@@H](O[C@H]2[C@H](O)[C@@H](N)C(OC)O[C@@H]2COC(=O)CCCCCCCCCCCCCCC)[C@H](N)[C@@H](O)[C@@H]1O (stereo partly drawn) [compound ②, 6,6'-di-O-palmitoyl-D-glucosamino-(1→4)-β-D-glucosamine methylglycoside] | 0/1 | 0/1 | 0/1 | 0/1 | 0/1 | 0/1 | 0/1 | 0/1 | 0/1 | 0/1 | no dead individual was found | no significant change was found | an increase in weight was found as in the control | –
3 | CCCCCCCCCCCCCCCCCCN [compound ③, Stearylamine, reference compound] | – | – | – | – | – | – | – | – | – | – | – | a decrease in spontaneous motion was found immediately after the administration | the weight was gradually decreased to result in death | Total Number of dead individuals (250 ng/kg i.p.): 1/5; Number of dead individuals (250 ng/kg i.p., 1st day): 0/5; Number of dead individuals (250 ng/kg i.p., 2nd day): 0/5; Number of dead individuals (250 ng/kg i.p., 3rd day): 1/5; Number of dead individuals (250 ng/kg i.p., Day of test): 0/5; Total Number of dead individuals (500 ng/kg i.p.): 3/5; Number of dead individuals (500 ng/kg i.p., 1st day): 0/5; Number of dead individuals (500 ng/kg i.p., 2nd day): 3/5; Number of dead individuals (500 ng/kg i.p., 3rd day): 0/2; Number of dead individuals (500 ng/kg i.p., Day of test): 0/5; Total Number of dead individuals (1,500 ng/kg i.p.): 4/4; Number of dead individuals (1,500 ng/kg i.p., 1st day): 0/4; Number of dead individuals (1,500 ng/kg i.p., 2nd day): 1/4; Number of dead individuals (1,500 ng/kg i.p., 3rd day): 3/3; Number of dead individuals (1,500 ng/kg i.p., Day of test): 0/4
